Biological target: purified human Factor XIa (Homo sapiens (Human), UniProt P03951)
Test: Factor XIa Assay
Assay type: biochemical
Conditions: substrate Z-Gly-Pro-Arg-AFC; value printed in the compound table of Example 12; read-out: FXIa Ki
Experimental: The effectiveness of a compound of the present invention as an inhibitor of Coagulation Factor XIa can be determined using a relevant purified serine protease, and an appropriate synthetic substrate. The rate of hydrolysis of the chromogenic or fluorogenic substrate by the relevant serine protease was measured both in the absence and presence of compounds of the present invention. Assays were conducted at room temperature or at 37° C. […] A decrease in the rate of fluorescence change in the presence of inhibitor is indicative of enzyme inhibition. Such methods are known to one skilled in the art. The results of this assay are expressed as the inhibitory constant, Ki.
Factor XIa determinations were made in 50 mM HEPES buffer at pH 7.4 containing 150 mM NaCl, 5 mM CaCl2, and 0.1% PEG 8000 (polyethylene glycol; JT Baker or Fisher Scientific).
Times required to achieve equilibration between enzyme and inhibitor were determined in control experiments. Initial velocities of product formation in the absence (Vo) or presence of inhibitor (Vi) were measured. […]

Sequence of purified human Factor XIa (P03951 388-625): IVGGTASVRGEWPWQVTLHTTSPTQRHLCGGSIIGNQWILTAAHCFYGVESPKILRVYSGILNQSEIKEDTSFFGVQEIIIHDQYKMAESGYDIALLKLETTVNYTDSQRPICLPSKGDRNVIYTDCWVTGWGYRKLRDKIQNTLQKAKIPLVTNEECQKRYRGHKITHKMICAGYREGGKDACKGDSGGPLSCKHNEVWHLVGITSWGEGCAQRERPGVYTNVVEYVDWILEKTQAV
Sequence of purified human Factor XIa (P03951 19-387 partner): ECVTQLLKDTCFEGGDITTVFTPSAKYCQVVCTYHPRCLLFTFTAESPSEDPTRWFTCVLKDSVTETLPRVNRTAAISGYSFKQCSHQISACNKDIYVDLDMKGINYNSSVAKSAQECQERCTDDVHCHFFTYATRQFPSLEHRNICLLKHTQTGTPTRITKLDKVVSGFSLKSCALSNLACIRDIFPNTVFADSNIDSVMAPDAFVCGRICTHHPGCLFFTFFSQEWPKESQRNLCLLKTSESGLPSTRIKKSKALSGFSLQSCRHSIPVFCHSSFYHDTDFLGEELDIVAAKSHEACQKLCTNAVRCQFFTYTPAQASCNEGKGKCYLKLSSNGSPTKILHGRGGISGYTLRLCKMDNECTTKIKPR

Ki: 3.08 nM
SMILES: O=C(O)c1ccc(-c2cnc(C3CCc4cc(-c5cc(Cl)ccc5-n5cnnn5)c[n+]([O-])c43)[nH]2)s1 (stereo not shown) [Example 12, 5-(2-{3-[5-chloro-2-(1H-tetrazol-1-yl)phenyl]-1-oxido-6,7-dihydro-5H-cyclopenta[b]pyridin-7-yl}-1H-imidazol-5-yl)thiophene-2-carboxylic acid]

— patent publication US10081617B2, “Factor XIa inhibitors” (MERCK SHARP & DOHME CORP., priority 2015, dated 2018)
